Patent US10813920B2, “Drug for treating corneal endothelium by promoting cell proliferation or inhibiting cell damage” (THE DOSHISHA, priority 2013, dated 2020)

Test system: corneal endothelial cells
Test: Western blot of apoptosis molecules after UV irradiation
Type: cell-based
Details: UV 100 J/m^2, 10 μM
Experimental: *Human corneal endothelial cells (HCEC, where the cells were obtained and culturing method thereof): HCEC was cultured as follows. In short, Descemet's membrane including corneal endothelial cells was peeled off from a corneal for research purchased from the Seattle Eye Bank, and the corneal endothelial cells were mechanically peeled off with a basal membrane. After collagenase (ROCHE catalog No: 10 103 586 001) was used to detach and collect the corneal endothelial cell from the basal membrane (typically 1 mg/mL collagenase A (Roche Applied Science) was used for treatment at 37° C. for 2 hours), the cells were subjected to primary culture. The medium used was Opti-MEM I Reduced-Serum Medium, Liquid (INVITROGEN catalog No.: 31985-070) to which 8% fetal bovine serum (FBS) (BIOWEST, catalog No.: S1820-500), […] of CaCl2.2H2O (SIGMA catalog No.: C7902-500G), 0.08% of chondroitin sulfate (SIGMA catalog No.: C9819-5G), 20 μg/ml of ascorbic acid (SIGMA catalog No.: A4544-25G), 50 μg/ml of gentamicin (INVITROGEN catalog No.: 15710-064) and 5 ng/ml of EGF (INVITROGEN catalog No.: PHG0311) were added and acclimated for a 3T3 feeder cell. Specifically, after digestion at 37° C., HCEC obtained from individual corneas was resuspended in a culture medium and plated on a well of a 12-well plate coated with FNC Coating Mix®. The culture medium was prepared in accordance with a partially-modified disclosed protocol. In short, a basal cultural medium containing OptiMEM-I (Life Technologies), 8% FBS, 5 ng/mL of epithelial growth factor (EGF) (Sigma-Aldrich Co., St. Louis, Mo.), 20 μg/mL of ascorbic acid (Sigma-Aldrich), 200 mg/L calcium chloride (Sigma-Aldrich), 0.08% chondroitin sulfate (Wako Pure Chemical Industries, Osaka) and 50 μg/mL of gentamicin was prepared and an acclimated medium was collected after inactivated 3T3 fibroblasts were cultured. The 3T3 fibroblasts were inactivated as previously described. […] Immunostaining was applied to the cells for observation with a fluorescence microscope. […]

C[S+]([O-])c1ccc(-c2nc(-c3ccncc3)c(-c3ccc(F)cc3)[nH]2)cc1 (stereo not drawn) [SB203580, 4-(4-fluorophenyl)-2-(4-methylsulfinylphenyl)-5-(4-pyridyl)-1H-imidazole]
suppresses: activation by cleavage of PARP due to UV irradiation | activation by cleavage of caspase 3 due to UV irradiation | phosphorylated histone H2AX induced by UV irradiation
